According to patent US11572351B1, “Bis-Schiff base compositions and formulations” (Systima Technologies, Inc., priority 2016, dated 2023):

Tests used:
[1] = Melt viscosity versus temperature, parallel plate rheometer, temperature ramp; assay type: physicochemical; conditions: ramp 2° C. per minute, strain 0.01%, 10.00 rad/s; processing window about 100° C. up to at least 200° C.
Procedure: (§1) In some embodiments, the chemical composition may have a low viscosity, such as below about 100,000 cP at temperatures below 170° C. The viscosity may be measured by rotational rheometry by acquiring viscosity versus temperature curves on a parallel plate rheometer, commercially available from TA Instruments (New Castle, Del.) at a controlled strain of 0.01% and an angular frequency of 10.00 radians per second (rad/s) by heating samples at a rate of 2° C. per minute to the isothermal temperature specified. In one or more embodiments, the chemical composition may have a melt viscosity of less than or equal to 500 cP at 125° C. as measured by rotation rheometry. In one or more embodiments, the chemical composition may have a melt viscosity of less than or equal to 100,000 cP at 125° C. as measured by rotation rheometry. For instance, the chemical composition may have a melt viscosity of from 10,000 to 100,000 cP, from 40,000 to 80,000 cP, or from 20,000 to 50,000 cP at 125° C. In some particular embodiments, the chemical composition may have an extremely low viscosity at less than 200° C., such as less than 500 cP. In some particular embodiments, the chemical composition may have a melt viscosity of from 100 to 500 cP, from 200 to 400 cP, or from 300 to 500 cP at 125° C. […]

[2] = Viscosity stability during 4 hour isothermal dwell at 120° C., parallel plate rheometer; assay type: physicochemical; conditions: isothermal 120° C., viscosity stayed 150 to 200 cP
Procedure: as §1

Row | Compound | viscosity (melt flow viscosity) [1] | period of time of stable low melt viscosity [2]
1 | C(=N\c1ccc(Oc2cccc(Oc3ccc(/N=C/c4ccco4)cc3)c2)cc1)/c1ccco1 [Example 1] | less than 1000 cP | at least 4 hours
2 | C(=N\c1cccc(Oc2cccc(Oc3cccc(/N=C/c4ccco4)c3)c2)c1)/c1ccco1 [Example 2] | less than 1000 cP | at least 4 hours
